Test results as given in patent publication US11572590B2, “Methods for evaluating tumor cell spheroids using 3D microfluidic cell culture device” (Dana-Farber Cancer Institute, Inc., priority 2017, dated 2023).
Like-named read-outs stand apart in the source and are kept apart here.

Legend:
Test in all cases: SelectScreen Kinase Profiling, single point inhibition and IC50 for off-target kinases
Type in all cases: biochemical
off-target kinases [1] = biological target: T1, off-target kinases (Homo sapiens, UniProt P54753); conditions: EPHB3, ZLYTE, ATP Km app
T1 sequence (P54753 34-998): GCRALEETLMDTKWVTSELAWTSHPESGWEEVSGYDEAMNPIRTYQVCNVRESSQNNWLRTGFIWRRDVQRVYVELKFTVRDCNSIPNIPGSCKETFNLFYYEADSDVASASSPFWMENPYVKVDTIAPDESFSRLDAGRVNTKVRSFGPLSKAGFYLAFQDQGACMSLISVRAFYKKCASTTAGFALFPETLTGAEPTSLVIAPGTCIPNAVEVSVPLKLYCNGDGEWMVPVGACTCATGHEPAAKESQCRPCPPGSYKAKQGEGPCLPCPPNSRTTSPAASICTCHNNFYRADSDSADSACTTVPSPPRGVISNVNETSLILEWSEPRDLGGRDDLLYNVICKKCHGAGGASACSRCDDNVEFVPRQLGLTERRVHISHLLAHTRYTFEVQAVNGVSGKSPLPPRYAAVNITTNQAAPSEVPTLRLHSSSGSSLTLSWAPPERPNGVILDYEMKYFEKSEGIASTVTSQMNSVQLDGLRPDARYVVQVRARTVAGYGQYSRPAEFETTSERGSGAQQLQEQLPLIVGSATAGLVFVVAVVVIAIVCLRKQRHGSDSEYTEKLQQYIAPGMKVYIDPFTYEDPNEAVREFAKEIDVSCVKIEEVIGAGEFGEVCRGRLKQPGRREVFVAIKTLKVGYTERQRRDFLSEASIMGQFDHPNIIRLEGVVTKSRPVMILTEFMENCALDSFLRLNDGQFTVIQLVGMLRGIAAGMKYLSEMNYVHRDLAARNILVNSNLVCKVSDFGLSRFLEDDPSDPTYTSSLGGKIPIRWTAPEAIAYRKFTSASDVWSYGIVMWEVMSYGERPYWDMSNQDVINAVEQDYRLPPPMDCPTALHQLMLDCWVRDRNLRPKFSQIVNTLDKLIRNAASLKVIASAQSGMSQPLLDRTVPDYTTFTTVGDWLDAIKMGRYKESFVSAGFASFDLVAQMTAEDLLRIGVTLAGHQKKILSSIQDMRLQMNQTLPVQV

off-target kinases [2] = biological target: off-target kinases (Homo sapiens, UniProt Q9UQM7)
off-target kinases (Homo sapiens, UniProt Q9UQM7), sequence (Q9UQM7 whole entry): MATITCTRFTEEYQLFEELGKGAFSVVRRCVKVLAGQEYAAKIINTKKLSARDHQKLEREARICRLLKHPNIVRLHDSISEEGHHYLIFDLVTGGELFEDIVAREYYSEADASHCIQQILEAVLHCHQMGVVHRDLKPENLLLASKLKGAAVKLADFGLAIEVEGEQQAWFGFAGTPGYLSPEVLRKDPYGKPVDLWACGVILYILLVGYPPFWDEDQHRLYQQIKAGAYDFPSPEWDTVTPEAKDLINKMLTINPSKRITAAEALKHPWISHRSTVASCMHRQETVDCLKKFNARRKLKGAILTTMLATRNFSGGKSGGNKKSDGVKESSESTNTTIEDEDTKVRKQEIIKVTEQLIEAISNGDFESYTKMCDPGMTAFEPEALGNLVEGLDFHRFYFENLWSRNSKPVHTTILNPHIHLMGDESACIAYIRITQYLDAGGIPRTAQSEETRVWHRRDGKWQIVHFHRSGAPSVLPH

off-target kinases [3] = biological target: off-target kinases (Homo sapiens, UniProt Q00536); conditions: CDK16 (PCTK1)/cyclin Y, LanthaScreen Binding
off-target kinases (Homo sapiens, UniProt Q00536), sequence (Q00536 whole entry): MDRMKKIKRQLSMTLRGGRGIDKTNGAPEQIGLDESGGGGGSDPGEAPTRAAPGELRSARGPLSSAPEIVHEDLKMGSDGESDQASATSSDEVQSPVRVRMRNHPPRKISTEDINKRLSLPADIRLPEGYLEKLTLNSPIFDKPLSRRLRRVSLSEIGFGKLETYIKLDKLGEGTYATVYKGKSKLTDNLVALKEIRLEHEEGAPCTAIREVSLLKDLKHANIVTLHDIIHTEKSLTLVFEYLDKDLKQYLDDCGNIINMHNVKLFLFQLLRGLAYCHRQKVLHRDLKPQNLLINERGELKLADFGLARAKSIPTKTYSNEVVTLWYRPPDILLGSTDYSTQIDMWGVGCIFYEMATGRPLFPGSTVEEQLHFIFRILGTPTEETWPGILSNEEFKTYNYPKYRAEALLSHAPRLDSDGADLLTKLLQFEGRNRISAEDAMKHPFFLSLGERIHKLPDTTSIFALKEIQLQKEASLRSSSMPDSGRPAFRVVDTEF

off-target kinases [4] = biological target: off-target kinases (Homo sapiens, UniProt P51957); conditions: NEK4, ZLYTE, ATP Km app
off-target kinases (Homo sapiens, UniProt P51957), sequence (P51957 whole entry): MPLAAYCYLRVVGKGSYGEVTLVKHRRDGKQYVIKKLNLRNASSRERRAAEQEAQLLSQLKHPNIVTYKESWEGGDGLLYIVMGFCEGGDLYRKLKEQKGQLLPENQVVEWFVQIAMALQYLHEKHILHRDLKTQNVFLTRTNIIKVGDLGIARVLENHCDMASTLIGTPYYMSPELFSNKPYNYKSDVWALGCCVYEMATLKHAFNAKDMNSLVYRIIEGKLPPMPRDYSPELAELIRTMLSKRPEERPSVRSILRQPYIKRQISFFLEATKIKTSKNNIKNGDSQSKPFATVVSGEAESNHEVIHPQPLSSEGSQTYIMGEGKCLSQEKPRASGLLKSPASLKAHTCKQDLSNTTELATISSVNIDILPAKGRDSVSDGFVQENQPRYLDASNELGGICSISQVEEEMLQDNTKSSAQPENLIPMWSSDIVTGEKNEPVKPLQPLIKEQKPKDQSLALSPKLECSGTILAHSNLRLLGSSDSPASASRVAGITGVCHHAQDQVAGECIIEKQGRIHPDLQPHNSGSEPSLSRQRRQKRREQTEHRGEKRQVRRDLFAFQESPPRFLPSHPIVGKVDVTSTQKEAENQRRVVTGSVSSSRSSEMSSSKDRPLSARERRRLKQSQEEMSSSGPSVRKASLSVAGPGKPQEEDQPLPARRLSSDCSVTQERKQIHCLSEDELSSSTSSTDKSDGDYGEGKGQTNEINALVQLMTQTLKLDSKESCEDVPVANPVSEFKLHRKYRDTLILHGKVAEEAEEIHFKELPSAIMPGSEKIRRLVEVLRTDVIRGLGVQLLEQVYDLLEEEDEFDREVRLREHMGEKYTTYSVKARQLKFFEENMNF

N#Cc1cc(-c2ncnc(Nc3ccc(N4CCN(C5COC5)CC4)cc3)n2)ccc1OC1CCOCC1 [Compound 1, 5-(4-((4-(4-(oxetan-3-yl)piperazin-1-yl)phenyl)amino)-1,3,5-triazin-2-yl)-2-((tetrahydro-2H-pyran-4-yl)oxy)benzonitrile]
inhibition (off-target kinases [1]; read-out: % Inhibition 1): 3% | inhibition (off-target kinases [1]; read-out: % Inhibition 2): 3% | inhibition (off-target kinases [1]; read-out: % Inhibition Avg): 3% | inhibition (off-target kinases [2]; CAMK2A (CaMKII alpha), ZLYTE, ATP Km app, read-out: % Inhibition 1): 4% | inhibition (off-target kinases [2]; CAMK2A (CaMKII alpha), ZLYTE, ATP Km app, read-out: % Inhibition Avg): 2% | inhibition (off-target kinases [2]; read-out: % Inhibition 2): 0% | inhibition (off-target kinases [3]; read-out: % Inhibition 1): 70% | inhibition (off-target kinases [3]; read-out: % Inhibition 2): 73% | inhibition (off-target kinases [3]; read-out: % Inhibition Avg): 71% | inhibition (off-target kinases [4]; read-out: % Inhibition 1): 23% | inhibition (off-target kinases [4]; read-out: % Inhibition 2): 23% | inhibition (off-target kinases [4]; read-out: % Inhibition Avg): 23%
